The values that follow come from patent US20230257415A1, “COMPOUNDS FOR TREATING CNS DISORDERS” (SAGE THERAPEUTICS, INC., priority 2019, published 2023).

pIC50: −log10 of the molar value. Some results are limits rather than exact numbers.

The pIC50 is −log10 of the IC50, conventionally taken in molar units.

The target in this assay is GABAA receptor. Nature of the assay: [35S]-TBPS binding assay, rat brain cortical membranes, in the presence of GABA. The following applies: inhibition of 3 nM [35S]-TBPS binding, 5 mM GABA, 90 min, room temp. How it is done:
[35S]-t-Butylbicyclophosphorothionate (TBPS) binding assays using rat brain cortical membranes in the presence of 5 mM GABA has been described (Gee et al, J. Pharmacol. Exp. Ther. 1987, 241, 346-353; Hawkinson et al, Mol. Pharmacol. 1994, 46, 977-985; Lewin, A.H et al., Mol. Pharmacol. 1989, 35, 189-194).
Briefly, cortices are rapidly removed following decapitation of carbon dioxide-anesthetized Sprague-Dawley rats (200-250 g). The cortices are homogenized in 10 volumes of ice-cold 0.32 M sucrose using a glass/teflon homogenizer and centrifuged at 1500 x g for 10 min at 4° C. The resultant supernatants are centrifuged at 10,000 x g for 20 min at 4° C. to obtain the P2 pellets. The P2 pellets are resuspended in 200 mM NaCl/50 mM Na-K phosphate pH 7.4 buffer and centrifuged at 10,000 x g for 10 min at 4° C. This washing procedure is repeated twice and the pellets are resuspended in 10 volumes of buffer. Aliquots ([…]) of the membrane suspensions are incubated with 3 nM [^35S]-TBPS and […] aliquots of test drug dissolved in dimethyl sulfoxide (DMSO) (final 0.5%) in the presence of 5 mM GABA. The incubation is brought to a final volume of 1.0 mL with buffer. […] Following a 90 min incubation at room temp, the assays are terminated by filtration through glass fiber filters (Schleicher and Schuell No. 32) using a cell harvester (Brandel) and rinsed three times with ice-cold buffer. Filter bound radioactivity is measured by liquid scintillation spectrometry. Non-linear curve fitting of the overall data for each drug averaged for each concentration is done using Prism (GraphPad). […] The concentration of test compound producing 50% inhibition (IC50) of specific binding and the maximal extent of inhibition (Imax) are determined for the individual experiments with the same model used for the overall data and then the means ± SEM.s of the individual experiments are calculated.
Various compounds are or can be screened to determine their potential as modulators of [^35S]-TBPS binding in vitro. These assays are or can be performed in accordance with the above.

On to `CCC[C@@]1(O)CC[C@@]2(C)[C@@H](CC[C@@H]3[C@@H]2CC[C@]2(C)[C@@H]([C@@H](C)Cn4nnnc4C)CCC[C@@H]32)C1` [Example 10, (2R,4aS,4bS,6aS,7R,10aS,10bR,12aS)-4a,6a-dimethyl-7-((R)-1-(5-methyl-1H-tetrazol-1-yl)propan-2-yl)-2-propyloctadecahydrochrysen-2-ol], for which the pIC50 is 6.00 to 7.00.
Consider `C[C@H](Nc1cccc(C#N)c1)[C@H]1CCC[C@H]2[C@@H]3CC[C@@H]4C[C@](C)(O)CC[C@@H]4C3CC[C@]12C` (stereo partly drawn) [Example 48, 3-(((1S)-1-((1S,4aS,4bR,6aR,8R,10aS,12aS)-8-hydroxy-8,12a-dimethyloctadecahydrochrysen-1-yl)ethyl)amino)benzonitrile], for which the negative-log IC50 (pIC50) is greater than 7.00.
The figure for `CC[C@]12CC[C@@](C)(O)C[C@H]1CC[C@H]1[C@@H]3CCC[C@H](CNS(=O)(=O)c4ccccc4)[C@@]3(C)CC[C@@H]12` [Example 39, N-(((1S,4aS,4bS,6aR,8R,10aS,10bS,12aS)-10a-ethyl-8-hydroxy-8,12a-dimethyloctadecahydrochrysen-1-yl)methyl)benzenesulfonamide] is 6.00 to 7.00; for `C[C@@]1(O)CC[C@H]2[C@H](CC[C@@H]3[C@@H]2CC[C@]2(C)[C@@H](CNS(=O)(=O)C4CC4)CCC[C@@H]32)C1` [Example 32, N-(((1S,4aS,4bR,6aR,8R,10aS,10bR,12aS)-8-hydroxy-8,12a-dimethyloctadecahydrochrysen-1-yl)methyl)cyclopropanesulfonamide] it is 6.00 to 7.00; for `CCC[C@@]1(O)CC[C@@]2(C)[C@@H](CC[C@@H]3[C@@H]2CC[C@]2(C)[C@@H]([C@@H](C)Cn4nnc(C)n4)CCC[C@@H]32)C1` [Example 9, (2R,4aS,4bS,6aS,7R,10aS,10bR,12aS)-4a,6a-dimethyl-7-((R)-1-(5-methyl-2H-tetrazol-2-yl)propan-2-yl)-2-propyloctadecahydrochrysen-2-ol] it is 6.00 to 7.00.
The figure for `C[C@@]1(O)CC[C@H]2[C@H](CC[C@@H]3[C@@H]2CC[C@]2(C)[C@@H](CNC(=O)c4ccccc4F)CCC[C@@H]32)C1` [Example 30, 2-fluoro-N-(((1S,4aS,4bR,6aR,8R,10aS,10bR,12aS)-8-hydroxy-8,12a-dimethyloctadecahydrochrysen-1-yl)methyl)benzamide] is greater than 7.00.
Turning to `COC[C@@]1(O)CC[C@@H]2C3CC[C@]4(C)[C@@H]([C@@H](C)NC(=O)c5ccc(F)cc5)CCC[C@H]4[C@@H]3CC[C@@H]2C1` (stereo partly drawn) [Example 44, 4-fluoro-N-((1R)-1-((1S,4aS,4bR,6aR,8R,10aS,12aS)-8-hydroxy-8-(methoxymethyl)-12a-methyloctadecahydrochrysen-1-yl)ethyl)benzamide], the pIC50 was 6.00 to 7.00.
Regarding `C[C@@H](Cn1cc(C#N)cn1)[C@H]1CCC[C@H]2[C@@H]3CC[C@@H]4C[C@](C)(O)CC[C@@H]4[C@H]3CC[C@]12C` [Example 4, 1-((R)-2-((1R,4aS,4bR,6aR,8R,10aS,10bR,12aS)-8-hydroxy-8,12a-dimethyloctadecahydrochrysen-1-yl)propyl)-1H-pyrazole-4-carbonitrile], the pIC50 is greater than 7.00.
As for `COC[C@@]1(O)CC[C@@H]2C3CC[C@]4(C)[C@@H]([C@H](C)NC(=O)c5ccc(C#N)cc5)CCC[C@H]4[C@@H]3CC[C@@H]2C1` (stereo partly drawn) [Example 47, 4-cyano-N-((1S)-1-((1S,4aS,4bR,6aR,8R,10aS,12aS)-8-hydroxy-8-(methoxymethyl)-12a-methyloctadecahydrochrysen-1-yl)ethyl)benzamide], the pIC50 was 6.00 to 7.00.
